In the SangsterLogP compilation one finds logD data, which are given here for 96 molecules.

As usually defined, the logD is the decadic logarithm of the distribution of all forms, ionised or not, between an organic phase and buffer at a given pH. Low values mean lower lipophilicity, high ones higher lipophilicity.

A short description of one data set: method code SF, from DOI: 10.1016/j.ejps.2012.10.019, PMID: 23131797. The settings on record: pH 2.0.
Molecule `CCN(C(=O)C(=O)c1cn(CC(=O)N2CCOCC2)c2ccccc12)c1ccccc1` came in with a logD of 2.05. Same read-out and setting: the same measure for `CC(=O)c1sc(SCCOc2ccccc2)nc1C`: 3.86; for `Cc1[nH]c2ccccc2c1C1=CN2CCS(=O)(=O)N=C2S1`: 1.56.

`Cc1c(NC(=O)CC(c2ccccc2)c2ccccc2)cccc1-n1cnnn1` registered a logD of 3.2. As for `Cc1cccc(C)c1NC(=O)Cn1cc(C(=O)C2CC2)c2ccccc21`, the logD was determined as 3.47.

Staying with this data set, now noted: pH 5.0.
`Cc1cc(C(=O)COC(=O)c2oc3ccccc3c2COC(C)C)c(C)n1-c1c(C)n(C)n(-c2ccccc2)c1=O`: the logD was 5.39. Molecule `CCOc1ccc(-n2c(SCC(=O)NC3CC3)nc3sc4c(c3c2=O)CCC4)cc1` showed a logD of 4.64. Take `COC(=O)c1ccc(OC(=O)c2cc(OC)cc(OC)c2)cc1`: the logD amounted to 4.64. Turning to `COc1cc(C(=O)c2ccc(F)cc2)cc(C(=O)c2ccc(F)cc2)c1`, the logD is 4.89. For the molecule `O=C(COC(=O)c1cccc(S(=O)(=O)N2CCc3ccccc32)c1)Nc1ccc(F)c(F)c1F`, the logD amounted to 5.31.

Molecule `Cc1sc2nc(SCC(=O)N3CCCC3)n(C3CCCCC3)c(=O)c2c1C` showed a logD of 5.16.

In turn, `CCc1nc2sc(C#N)c(N)n2c(=O)c1C#N` returned a logD of 2.09. Consider `CSc1sc(C(=O)N2CCOCC2)c2c1S(=O)(=O)N(C)c1ccccc1-2`, for which the logD amounted to 3.11. On the same count and under the same terms, the figure for `NC(=O)C1CCN(C(=O)c2ccc3c(=O)n(Cc4ccco4)c(SCC(=O)c4ccccc4)nc3c2)CC1` is 5.31; for `Cc1ccc(S(=O)(=O)N(CCO)Cc2ccccc2)cc1` it is 3.69; for `O=C1c2ccccc2C(=O)N1c1ccccc1S(=O)C(F)(F)F` (stereo unspecified) it is 3.3. `COc1ccc(C(=O)OCC(=O)NC2CCCCCCC2)cc1[N+](=O)[O-]` registered a logD of 4.28. In turn, `COc1ccc(OCC(=O)N2CCN(C(=O)c3ccco3)CC2)cc1` yielded a logD of 2.76. Still for that read-out and setting: the same measure for `COc1ccc(N2C3=C(C(=O)CC(C)(C)C3)C(c3ccc4c(c3)OCO4)C3=C2CC(C)(C)CC3=O)cc1`: 5.72; for `O=C1c2ccccc2C(=O)N1c1ccccc1C(F)(F)F`: 3.55; for `COc1cc(C(=O)Nc2ccccc2C(C)(C)C)cc(OC)c1OC`: 3.61. In the case of `COc1cccc2c1N(C(=O)CC(C)C)C(C)(C)c1ssc(=S)c1-2`, the logD was determined as 5.09. In turn, `Cc1ccc(NC(=O)c2ccc(S(=O)(=O)N3CCOCC3)cc2)c(C(=O)c2ccccc2)c1` had a logD of 4.54. `Nn1c(SCC(=O)Nc2ccccc2-c2ccccc2)nnc1-c1ccc(OC(F)F)cc1`: the log distribution coefficient (logD) came out at 4.85. As for `CCc1c(C#N)c(SCC(=O)N2CCc3cc(OC)c(OC)cc3C2)nc2c1C(=O)CC(C)(C)C2`, the logD was 4.89.

`FC(F)(F)c1nc(-c2ccc(-c3noc(C(F)(F)F)n3)cc2)no1`: the logD was found to be 6.06.

The molecule `CCOC(=O)N1CCN(C(=O)/C=C/c2ccc(Cl)c(Cl)c2)CC1` gave a logD of 4.34. On the same count and under the same terms, the same measure for `CCOC(=O)c1ccc(NCc2c(C)[nH]c(C(=O)OCC)c2C)cc1`: 5.09; for `Cc1ccc(NC(=O)CSc2nnc(Cc3ccccc3)o2)cc1Cl`: 4.85; for `CCOC(=O)C(C)(C)N(CCC(C)C)S(=O)(=O)c1ccc([N+](=O)[O-])cc1`: 4.75. Consider `COc1cc2c(cc1NC(=O)COC(=O)c1cc(OC)c(OC)cc1[N+](=O)[O-])oc1ccccc12`, for which the logD amounted to 5.04. Same read-out and setting: the figure for `CC1(C)OC(=O)C(=Cc2ccc([N+](=O)[O-])s2)C(=O)O1` is 3.04; for `FC(F)(F)c1ccc(-n2cc3ccccc3n2)cc1` it is 4.42. Same read-out and setting: the same measure for `Cc1ccc(N(CCOC(=O)c2ccc(S(=O)(=O)N3CCCCC3)cc2)C2=NS(=O)(=O)c3ccccc32)cc1`: 5.58; for `Cc1cccc(C)c1NC(=O)CSc1nnnn1-c1ccc(OC(F)(F)F)cc1`: 4.82; for `Cn1ncc(Cl)c1-c1nc(-c2nonc2N)no1`: 2.77. With `COc1nc(Cl)nc(Nc2ccccc2)n1`, the pH-dependent lipophilicity (logD) was 2.89. With `O=C(Cn1c(=O)n(-c2ccccc2)c(=O)n1CC(=O)N1CCCCC1)N1CCCCC1`, the logD was found to be 2.78. `O=C(Nc1ccc(S(=O)(=O)c2ccc(NC(=O)c3cccs3)cc2)cc1)c1cccs1` displayed a logD of 4.46. On the same count and under the same terms, the same measure for `CC(C)(C)NC(=S)Nc1ccc(F)cc1`: 2.71; for `COc1ccc(-c2nnc(SCc3cc(=O)oc4ccc5ccccc5c34)n2N)cc1`: 4.24; for `CCCCOc1ccc(C(=O)Oc2ccc3c(c2)OCO3)cc1OC`: 4.77. With `COc1ccc(C(=O)Nc2cccc(F)c2)cc1S(=O)(=O)N1CCOCC1`, the logD stood at 3.64. Still for that read-out and setting: the figure for `COc1cc(C(=O)Nc2cccc(C#N)c2)cc(OC)c1OC` is 3.44; for `COC(=O)CN(c1ccccc1)S(=O)(=O)c1ccc(OC)cc1` it is 3.43. With `CCCC(=O)N1CC2(C)CN(C(=O)CCC)CC(C)(C1)C2`, the log distribution coefficient (logD) was 2.69.

`CCOc1ccc(NC(=O)CSc2nc3ccsc3c(=O)n2-c2ccccc2)cc1` displayed a logD of 4.33. Turning to `CCOc1ccc(NC=C(S(=O)(=O)c2ccc(C)cc2)S(=O)(=O)c2ccc(C)cc2)cc1`, the logD worked out at 5.64.

With `CCn1ccc(CN(C)C(=O)c2ccccc2COc2ccc(F)cc2F)n1`, the pH-dependent lipophilicity (logD) was 4.43. As for `O=C(CSc1nnc(-c2cccs2)o1)NCCN1C(=O)CSC1=O`, the logD was found to be 2.31. `O=C1c2ccc(-c3ccc4c(c3)C(=O)N(CCO)C4=O)cc2C(=O)N1CCO` registered a logD of 3.19. `CCOC(=O)CSc1nnnn1-c1cccc2ccccc12` had a logD of 3.8. Take `O=[N+]([O-])c1cccc(-c2noc(CC3CCCCC3)n2)c1`: the logD stood at 5.17. `CCOc1nc(C#N)nc(N2CCOCC2)n1`: the log distribution coefficient (logD) stood at 2.46. The same measure, in the same setting: the same measure for `O=C(COc1ccc2ccccc2c1)N1CCN(S(=O)(=O)c2ccc3c(c2)OCCO3)CC1`: 4.47; for `O=C1CC(c2cccc([N+](=O)[O-])c2)CC2=C1C(c1ccco1)N(C(=O)C(F)(F)F)c1ccccc1N2` (stereo unspecified): 4.68; for `O=C(CSc1nc2ccccc2s1)c1cccs1`: 4.04. On to `O=C(Nc1ccccc1C(F)(F)F)NC1CCCCC1`, for which the logD amounted to 4. This logD and that of the molecule before are within 0.2 log units of each other.

`COc1cc2c(cc1OC)CN(C(=O)c1cccc(S(=O)(=O)N3CCCCC3)c1)CC2` came in with a logD of 4.2.

The data set is the same for the next values; noted with them: pH 6.5.
`COC(=O)c1cccc(NC(=O)c2cc(C(=O)Nc3cccc(C(=O)OC)c3)cc(N3C(=O)c4ccccc4C3=O)c2)c1` yielded a logD of 6.09. The same measure, in the same setting: the figure for `COc1cc(C(=O)COC(=O)CCCOc2ccc(Cl)cc2Cl)cc(OC)c1OC` is 5.59; for `CCN(CC)C(=O)c1sc(NC(=O)c2cc(OC)cc(OC)c2)c(C(=O)OC)c1C` it is 5.47. `COc1ccc(-c2nnc(N)s2)cc1OC` displayed a logD of 2.34. `CCOc1ccc(CC(=O)C2=C(N3CCCC3)CCCC2=O)cc1OCC` displayed a logD of 3.3.

For the molecule `COC(=O)c1c(NC(NC(=O)c2cccnc2)(C(F)(F)F)C(F)(F)F)sc2c1CCCCC2`, the logD worked out at 5.75. Same read-out and setting: the same measure for `O=C(COc1nnc(SCC(=O)c2ccc3c(c2)OCCO3)n1C1Cc2ccccc2C1)c1ccc(F)cc1`: 5.47.

In turn, `Cc1c(C)c(C)c(CSc2nnc(CC#N)n2C)c(C)c1C` came in with a logD of 4.14. As to `N#Cc1nc(N2CCCC2)nc(N(c2ccccc2)c2ccccc2)n1`, the logD turned out to be 5.38.

The data set is the same for the next values; noted with them: pH 7.3.
`CC(C)CCn1c(NCCO)nc2c1c(=O)n(C)c(=O)n2C` showed a logD of 2.93.

On to `C=C(c1ccc(N(C)C)cc1)c1ccc(N(C)C)cc1`, for which the logD amounted to 5.3. The molecule `C=CCn1c(SCc2ccccc2)nc2ccccc2c1=O` showed a logD of 5.11. Same read-out and setting: the same measure for `COC(=O)c1cc(OC)c(OC)cc1NC(=O)CSc1nncn1C`: 2.78. On the same count and under the same terms, the same measure for `Cc1cc2ccccc2c(=O)n1CC(=O)NCC(=O)N1CCN(c2cccc(Cl)c2)CC1`: 4.45. On to `CCc1ccccc1Nc1nc(N)nc(CSc2nnc(-c3ccc(OC(F)F)cc3)n2N)n1`, for which the logD stood at 4.35. As for `n1onc2c1NC1Nc3nonc3NC1N2` (stereo unspecified), the logD amounted to 0.3. Regarding `C=CCn1c(SCC(=O)NCc2ccc(C(=O)OCC)cc2)nc2sc(C)c(C)c2c1=O`, the log distribution coefficient (logD) amounted to 4.83. For `Cc1nccn1S(=O)(=O)c1ccc(Cl)cc1`, the logD stood at 2.93.

`CCn1c(SCC(=O)Nc2ccc(C(=O)OC)cc2)nnc1-c1ccccc1` yielded a logD of 4.24. The molecule `NC(=O)CSc1nc2c(c(=O)n1Cc1ccco1)C1(CCCCC1)Cc1ccccc1-2` showed a log distribution coefficient (logD) of 5.45. `Cn1c(SCC(=O)NC2CCCCCC2)nnc1-c1ccc(Cl)cc1` showed a logD of 4.21. Regarding `CCOC(=O)c1c(NC(=O)CSc2nnc(C)s2)sc2c1CCCCC2`, the logD was 5.03. `COc1cc(OC)c(C2C3=C(CCCC3=O)Nc3ncnn32)cc1OC` (stereo unspecified) came in with a logD of 2.19.

In the case of `Cn1c(SCc2cc(F)cc(F)c2)nnc1-c1ccc2nonc2c1`, the logD amounted to 3.68.

The data set is the same for the next values; noted with them: pH 8.0.
As for `CCOC(=O)c1nc(N)sc1C`, the log distribution coefficient (logD) stood at 1.74.

The same data set, now with this note: pH 10.0.
`CCOC(=O)C1=C(C)NC(C)=C(C(=O)OC)C1c1ccco1` (stereo unspecified): the pH-dependent lipophilicity (logD) turned out to be 3.67. With `CCc1noc(-c2[nH]c3ccccc3c2C(=O)C(=O)N(C)C)c1C`, the logD worked out at 2.68. `Cc1cc(C)c(NC(=O)CSc2nnc(-c3ccc(OC(F)F)cc3)n2N)c(C)c1` returned a logD of 4.41.

The same data set, now with this note: pH 10.5.
Molecule `Cc1cc(C)n(C2=NCCN2S(=O)(=O)c2cc(C(F)(F)F)cc(C(F)(F)F)c2)n1` registered a logD of 4.7. Regarding `COCCCNC(=O)c1cc(Br)c(C)c(C)c1C`, the logD amounted to 2.93. Regarding `CCNc1nc(NC(C)C)nc(Oc2ccc(OCC)nn2)n1`, the logD was found to be 3.14. For `Nc1cccc2c1C(=O)N(C(=O)c1cc(-c3ccccc3Cl)nc3ccccc13)C2=O`, the logD is 4.63. In turn, `Cc1ccccc1N1C(=O)c2ccc(C(=O)OCC(=O)c3c(N)n(C)c(=O)n(C)c3=O)cc2C1=O` had a logD of 4.55. The same measure, in the same setting: the same measure for `CCCNC(=O)N1CCN(C(=O)NCCC)CC1`: 1.04. The molecule `Cc1ccc(-n2c(C)cc(=O)cc2C)cc1C` had a logD of 2.95. In turn, `Cc1c(C(=O)N2CCN(S(=O)(=O)c3ccccc3)CC2)sc2nc3n(c(=O)c12)CCCCC3` returned a logD of 4.13. Consider `CCOc1ccc(NC(=O)CN(C)C(=O)c2ccc(C)o2)cc1OCC`, for which the logD came to 2.09.
